For data set [1], the system named is hESC-derived CMs 3D tissues. It counts as cell-based, human. The method, then: Alternatively, to measure the force generated by the 3D engineered cardiac tissues, a bioreactor consisting of a PDMS tissue chamber capable of housing 8 micotissues was employed. […] Briefly, each well of the PDMS chamber had two posts which served as anchoring points for each cardiac tissue during gel compaction. Furthermore, by tracking a post's deflection, the force of contraction a cardiac tissue generated was determined. Cardiac tissues underwent 7 days of pre-culture followed by 7 days of treatment with endothelin-1, angiotensin II or isoproterenol. After the treatment, the contractile force of each cardiac tissue was determined by video recording, one at a time, the top surface of a post for each cardiac tissue while being paced at 0.5 or 1 Hz using CellSens software (Olympus). Each video was then exported as a series of Tiff images and opened in ImageJ. […] Using the method of superposition for a cantilever beam-partial uniform deflection, a point force was calculated and then normalized to the tissues cross sectional area (assumed circular) to determine the cardiac force per area.

In data set [2] the test system is hESC-CM biowires (Hes2). It counts as cell-based, human. The method, then: After preculture for 7 days, biowires were randomly transferred to 6-well plates and cultured in StemPro-34 media in the absence or presence of Isoproterenol (100 nM), Angiotensin II (200 nM [17]) or Endothelin-1 (150 nM)(Sigma) for 7 days. This protocol was chosen to replicate the chronic treatment of mice as described. […] Isolated single cells were seeded on Matrigel-coated glass cover slips before cell area and calcium transient measurements were performed. Immunostaining and Fluorescence Microscopy. Immunostaining was performed using the following antibodies: mouse anti-cTNT (1:100, Thermo Scientific; MS-295-P1), mouse anti-α-actinin (1:200, Abcam, ab9465), anti-mouse-Alexa Fluor 488 (1:400, Invitrogen, A21202), anti-rabbit-TRITC (1:400, Invitrogen, 81-6114). DAPI was used to counterstain nuclei. Phalloidin Alexa Fluor 660 (1:1000, Invitrogen, A22285) was used to detect actin fibers. The stained cells were visualized using a fluorescence microscope (Leica CTR6000) and images captured using the Leica Application Suite software. For confocal microscopy cells were visualized using a fluorescence confocal microscope (Zeiss LSM-510). Transmission Electron Microscopy (TEM). Tissue was fixed with 4% Paraformaldehyde, 1% Glutaraldehyde in 0.1 M PBS for at least 1 hr and washed 3 times with PBS pH 7.2. Post-fixation was done with 1% Osmium Tetraoxide in 0.1 M PBS, pH 7.2 for 1 hr and dehydrated using ethanol series from 25 to 100%. Tissue was infiltrated using Epon resin and polymerized in plastic dishes at 40° C. for 48 hr. Tissue was stained with Uranyl Acetate and Lead Citrate after sectioning. Imaging was performed at Hitachi H-7000 transmission electron microscope.

The subject of data set [3] is human cardiac tissue strands (hESC, Hes2 derived cardiomyocytes). Nature of the data set: Biorod drug testing: tissue beating pattern and contractile force by polymer wire deflection. Particulars: for response of human cardiac tissues to well-known drugs: summary statement. The data set is classed as cell-based. How it is done: Cardiomyocytes were derived from human embryonic stem cell lines (hESC, Hes2). Embryoid bodies (EBs) were differentiated to the cardiovascular lineage and disassociated as previously described in Device 1 Methods. Before cell seeding, micro-well surface was rinsed with 5% (w/v) Pluronic Acid (Sigma P2443) and then air dried in the bio-safety cabinet. hESC derived cardiomyocytes were suspended at 200 million/ml (unless specified otherwise) in Collagen Type I based gel (3.0 mg/ml of rat tail collagen type I (BD Biosciences) neutralized by 1N NaOH and 10×M199 media as described by the manufacturer) with the supplements of […], 1% (v/v) HEPES, 10% (v/v) Matrigel (BD Biosciences), and […]. Suspended cardiomyocytes were then seeded into the cell culture channel (2.5 μl per well). After 30 min incubation at 37° C. to induce the gelation, appropriate media were added. After seeding, cells were kept in culture for 7 days to allow collagen matrix remodeling and assembly around the wires. Cardiac tissue strands were kept in culture for up to 21 days with media change every 2-3 days. Preferably, the tissue strands should be kept in culture for at least 2 weeks to allow for maturation; however there is no limitation on the maximum culture duration. Cardiac tissue strands were seeded to observe the stability and reproducibility of tissue in long term culture. After seeding, brightfield images (see FIG. 39A for an example) of the tissue strands were taken every day (n=3 per group) using optical microscope (Olympus CKX41) and the diameters of the tissue strands at four distinct locations were analyzed with imageJ (see FIG. 39B for an example). Tissue strand lengths were also analyzed with same method.
Tissue contractile behavior tracing and measurement was carried out. POMac is auto-fluorescent at a wide range of wavelenths; therefore the wires were imaged with a fluorescence microscope under DAPI channel (e.g. 461 nm wavelength) to trace the bending movements of the wires. The POMac is auto-fluorescent at a wide range of wavelengths, including under FITC and Tritc channels. Images were taken at 25 frames per second (fps) (see FIG. 39C). Image sequences were analyzed with ImageJ software using tracking plugin. To calculate the forces originated from cardiac tissues, beam deflection formula with uniformly distributed load in the middle section was used here. […] The engineered cardiac tissues were paced at 2 Hz frequency. From this image sequence, contraction and relaxation time of beating can be estimated. […] Tissue stretching wires can be considered uniformly distributed Load, Wo (Load per force bearing length), which can be calculated with displacement of center point of wires in image sequence, and F can be calculated as well. […] Briefly, entire beam length was L. Section of wire with tissue wrapping around it was experiencing load. Here, the load was assumed to be evenly distributed throughout this section, and Wo was load per length. […] The distance between side of the tissue and a well wall is a, which was assumed equal for both sides. The deflection at center point was y.
Drug testing was carried out.

Data set [4] deals with endothelialized AngioChip human cardiac tissue. The conditions noted are these: 10 μM perfused through built-in vasculature, within 30 min.
Experimental: Cardiac drug test. On day 7 of culture, the spontaneous contractions of the cardiac tissues were recorded as bright-field videos. […] After 30 min incubation, the spontaneous contractions of the cardiac tissues were recorded again as bright-field videos. The frequency of contraction was analyzed from the recorded videos with image J. DMSO was used to dissolve the drugs. The final concentration of DMSO in the culture media was diluted to less than 0.1% (v/v).
Data set [5] has as its system Hes2 hESC-derived cardiomyocyte tissue strands. Particulars: Hes2 hESC-cardiomyocyte tissue strand; DI-4-ANEPPS imaging.
Experimental: For human cardiac tissue strands, day 20 EBs generated as described above were incubated in collagenase type I (1 mg/ml; Sigma) and DNAse (1 mg/ml, CalBiochem) in Hank's Balanced Salt Solution (NaCl, 136 mM; NaHCO3, 4.16 mM; Na3PO4, 0.34 mM; KCl, 5.36 mM; KH2PO4, 0.44 mM; dextrose, 5.55 mM; HEPES, 5 mM) for 2 hr at 37° C. EBs were centrifuged (800 r.p.m., 5 min), incubated with trypsin (0.25%, Gibco) for 5 min at 37° C. and pipetted gently to dissociate the cells. After dissociation, cells were centrifuged (1,000 r.p.m., 5 min), counted and seeded at 0.5×10^6 cells/strand of 0.5 cm in length. This ratio was maintained for generation of longer tissue strands. […]
For optical mapping, tissue strands were incubated with a voltage sensitive dye (Di-4-ANEPPS 5 μM, Invitrogen) for 20 min at 37° C. in warm Tyrode's solution (NaCl 118 mM, KCl, 4.7 mM, CaCl2 1.25 mM, MgSO4 0.6 mM, KH2PO4 1.2 mM, NaHCO3 25 mM, glucose 6 mM; oxygenated by bubbling carbogen 95% O2, 5% CO2 for at least 20 minutes shortly before use). Dye fluorescence was recorded on a MVX-10 Olympus fluorescence microscope equipped with a high-speed CMOS camera (Ultima-L, Scimedia)^29-30. […] The fluorescence was excited using a mercury arc source (X-Cite Exacte) with green filter (Olympus U-MWIG2 filter cube). […]
Data set [6] concerns hESC-derived cardiomyocytes (Hes2 cell line). The data set can be described thus: Calcium transient measurements in single cardiomyocytes dissociated from tissue strands. It counts as cell-based, human. The method, then: Calcium transient measurements were taken. Tissue strands were dissociated by incubation with collagenase and trypsin as described in detail above. The dissociated cardiomyocytes were plated onto growth factor free Matrigel (diluted 1:60 in RPMI media)-coated 25-mm microscope glass coverslips overnight. Cells were then incubated with 5 μM of fluo-4 acetoxymethyl ester (fluo-4 AM) in culture media for 2 hours at 37° C. Subsequently, cardiomyocytes were washed twice with dye-free medium and placed back into the incubator for 30 min. A laser scanning confocal microscope (Zeiss LSM 510) was used to measure the fluorescence intensity of fluo-4 AM. The coverslips containing the fluo-4 AM-loaded cardiomyocytes were moved onto a special chamber and tightly secured. Approximately 1.8-1.9 ml of culture medium was added into the chamber, which was placed on a temperature controlled-plate (37° C.) on the microscope. Fluo-4 was excited via an argon laser (488 nm) and emitted fluorescence was collected through a 505 nm emission filter. Changes in fluo-4 AM fluorescence intensity, which indicates transient fluctuation of cytosolic calcium concentration, were recorded in frame and line scan model. The images and fluorescence data were acquired through Zeiss software. The fluorescence data were analyzed with Origin 8.5 software. Fluorescence signals (F) were normalized to baseline fluorescence after loading fluo-4 AM. The rising phase of the signals was fitted by linear model while the decaying phase of the signals was fitted by ExpDecay with Offset model. Caffeine, Verapamil (Sigma) and Thapsigargin (Invitrogen) were directly added into the chamber that contained the cardiomyocytes during imaging at concentrations indicated in the figures.

Data set [7] relates to hESC-CM biowires (Hes2). The data set can be described thus: Chronic drug exposure of biowires: quantitative RT-PCR of fetal gene program. It counts as cell-based, human. Particulars: 7 days treatment: ISO 100 nM, Et-1 150 nM, AngII 200 nM; vs untreated control. The method, then: (§1) After preculture for 7 days, biowires were randomly transferred to 6-well plates and cultured in StemPro-34 media in the absence or presence of Isoproterenol (100 nM), Angiotensin II (200 nM [17]) or Endothelin-1 (150 nM)(Sigma) for 7 days. This protocol was chosen to replicate the chronic treatment of mice as described. […] Isolated single cells were seeded on Matrigel-coated glass cover slips before cell area and calcium transient measurements were performed.
Quantitative RT-PCR. RT-PCR was performed as previously described. Total RNA was prepared with the High Pure RNA Isolation Kit (Roche) and treated with RNase-free DNase (Roche). RNA was reverse transcribed into cDNA using random hexamers and Oligo (dT) with SuperScript VILO (Invitrogen). RT-qPCR was performed on a LightCycler 480 (Roche) using LightCycler 480 SYBR Green I Master (Roche). Expression levels were normalized to the housekeeping genes TATA box binding protein (TBP) or Glyceraldehyde 3-phosphate dehydrogenase (GAPDH).

Data set [8] deals with Hes2 hESC derived cardiomyocytes. It counts as cell-based, human. Particulars: single cells dissociated at end of 7 days treatment, cardiac troponin T staining. How it is done:
as §1

Data set [9] relates to hESC-CM biowires (Hes2). The data set can be described thus: Chronic drug exposure: ELISA of soluble BNP in conditioned media. The data set is classed as cell-based, human. The method, then: After preculture for 7 days, biowires were randomly transferred to 6-well plates and cultured in StemPro-34 media in the absence or presence of Isoproterenol (100 nM), Angiotensin II (200 nM [17]) or Endothelin-1 (150 nM)(Sigma) for 7 days. This protocol was chosen to replicate the chronic treatment of mice as described. […] Isolated single cells were seeded on Matrigel-coated glass cover slips before cell area and calcium transient measurements were performed. ELISA. Quantification of soluble BNP from the conditioned media was performed using commercially available ELISA kits.
In general terms: ELISA stands for enzyme-linked immunosorbent assay.

As for `CC[C@H](C)[C@H](NC(=O)[C@H](Cc1ccc(O)cc1)NC(=O)[C@@H](NC(=O)[C@H](CCCNC(=N)N)NC(=O)[C@@H](N)CC(=O)O)C(C)C)C(=O)N[C@@H](Cc1cnc[nH]1)C(=O)N1CCC[C@H]1C(=O)N[C@@H](Cc1ccccc1)C(=O)O` [AngII, angiotensin II], the force of contraction entry in [1] was “significantly reduced force of contraction”. In addition, in data set [2], the “contractile apparatus (transmission electron microscopy)” value is “significant absence of distinct Z-disks and the lack of a defined sarcomere structure”.

Regarding `Cc1cccc(CCN2CCC(C(=O)c3ccc(NS(C)(=O)=O)cc3)CC2)n1` [E4301], the “response of human cardiac tissues to well-known drugs” value in [3] is on record as “responded appropriately”.

For `CNC[C@H](O)c1ccc(O)c(O)c1` [Epinephrine, epinephrine], the “chronotropic response (frequency of spontaneous contraction)” value in data set [4] is reported as “positive chronotropic response”. In [5], the spontaneous beating frequency entry is reported as “increasing spontaneous beating frequency”.

Turning to `NC[C@H](O)c1ccc(O)c(O)c1` [Norepinephrine], in [3] (10 μM), the beating frequency result is “significant increased beating frequency”. Besides, the “response of human cardiac tissues to well-known drugs” value in [3] is “responded appropriately”.

Turning to `Cn1c(=O)c2c(ncn2C)n(C)c1=O` [caffeine], in data set [6] (cells from 6 Hz tissue strands, after verapamil or nifedipine), the “effect of caffeine added post blockage of L-type Ca2+ channels” value is listed as “Ca^2+ release into the cytosol”. Further, the “Ca2+ transient amplitude intensity in response to caffeine” value in data set [6] (electrically stimulated cells vs non-stimulated controls, caffeine 5 mM) was “significantly higher amplitude intensity”. Besides, the “response of cytosolic Ca2+ to caffeine” value in data set [6] (single cells from electrically stimulated tissue strands, 3 and 6 Hz conditions) is given as “inducing an increase in cytosolic Ca^2+”; in data set [6] (single cells from non-stimulated control tissue strands), “none of the hESC-cardiomyocytes in non-stimulated controls were responsive”.

In the case of `C[C@H]1O[C@@H](O[C@H]2[C@@H](O)C[C@H](O[C@H]3[C@@H](O)C[C@H](O[C@H]4CC[C@@]5(C)[C@H](CC[C@@H]6[C@@H]5C[C@@H](O)[C@]5(C)[C@@H](C7=CC(=O)OC7)CC[C@]65O)C4)O[C@@H]3C)O[C@@H]2C)C[C@H](O)[C@@H]1O` [digoxin], the “chronotropic response (frequency of spontaneous contraction)” value in data set [4] is given as “negative chronotropic response”.

In the case of `C/C=C(/C)C(=O)O[C@H]1C(C)=C2[C@H]([C@@H]1OC(=O)CCCCCCC)[C@@](C)(OC(C)=O)C[C@H](OC(=O)CCC)[C@@]1(O)[C@H]2OC(=O)[C@@]1(C)O` [thapsigargin], the “calcium transients after blockage of SERCA” value in data set [6] (cells from 6 Hz tissue strands) is “cessation of calcium transients with time”.

Take `COc1ccc(CCN(C)CCCC(C#N)(c2ccc(OC)c(OC)c2)C(C)C)cc1OC` (stereo not drawn) [verapamil]: the “Ca2+ transients after blockage of L-type Ca2+ channels” value in [6] (cells from 6 Hz tissue strands) was “cessation in Ca^2+ transients”.

endothelin-1 [Et-1]: the “ANF and BNP gene expression (fetal gene program)” value in [7] was “no changes in gene expression”. In addition, the “increase in cell size” value in data set [8] was 100%. Besides, the “BNP in the conditioned media” value in data set [9] (chronic treatment) is “BNP can also be found in the conditioned media”. For the same molecule, the “increase in the secretion of BNP” value in data set [9] (day 2 post-treatment, media conditioned for 48 h) is 5 fold. Also, the “increase of BNP in the media” value in data set [9] (day 7, media conditioned for 24 h) came to 7 fold. Besides, the force of contraction result in data set [1] is listed as “significantly reduced force of contraction”. Besides, the “contractile apparatus (transmission electron microscopy)” value in [2] was “significant absence of distinct Z-disks and the lack of a defined sarcomere structure”.

(Values after patent US12158464B2, “Methods for modeling disease tissue using three-dimensional tissue systems” (priority 2013, dated 2024).)
